The values below are quoted from earlier work in patent US20100160366A1, “TREATMENT METHOD” (Schering Corporation, priority 2000, published 2010).

The subject of one series is allergic immune cells. The settings on record: allergic immune cells in vitro.

As to `CCOC(=O)N1CCC(=C2c3ccc(Cl)cc3CCc3cccnc32)CC1` [loratadine], in the series with allergic immune cells, the “release of mast cell histamine” value was “inhibit” and the “release of the cysteinyl leukotriene LTC4” value is given as “inhibit”. Also, the “adhesion molecule ICAM-1 expression” value in the series on ICAM-1 is recorded as “reduced”. Further, the “activation of monocytes as measured by superoxide anion production” value in the series on monocytes is on record as “reduced”. In the series on IL-6, the “inflammatory cytokine IL-6” value is recorded as “inhibited”. In addition, in the series on eosinophils, the activity of eosinophils result is listed as “inhibited” and the chemotaxis of eosinophils result was “inhibited”.
